Results on 7 molecules are retold here after patent US7968724B2, “Ester derivatives as phosphodiesterase inhibitors” (Chiesi Farmaceutici S.p.A., priority 2007, dated 2011).

The subject of experiment [1] is LPS-induced TNF-α release in peripheral blood mononuclear cells (PBMCs). The experiment is described as follows: PDE4 inhibitory activity in the PBMCs assay (LPS-induced TNF-α release). The class given is cell-based. As to conditions: PBMC; human PBMCs, LPS 3 ng/ml, 18 hours; read-out: IC50 in the PBMCs assay (50% inhibition of LPS-induced TNF-α release). The procedure:
The assay, which is based on the known inhibitory activity exerted by PDE4 inhibitors on the lipopolyshaccarides (LPS)-induced tumour necrosis factor-alpha (TNF-α release in peripheral blood mononuclear cells (PBMCs), is performed according to a method previously described (Hatzelmann A et al., J. Pharmacol. Exp. Ther., 2001; 297:267-279; and Draheim R et al., J. Pharmacol. Exp. Ther., 2004; 308:555-563. Cryopreserved human PBMCs, (100 μl/well) are incubated in 96-well plates (10^5 cells/well), for 30 minutes, in the presence or absence (50 microl) of the test compounds whose concentrations ranged from 10^−12 M to 10^−6 M. Subsequently, LPS (3 ng/ml) is added. After 18 hours of incubation at 37° C. in a humidified incubator under an atmosphere of 95% air and 5% CO2, culture medium is collected and TNF-α measured by ELISA.
The results are expressed as mean±95% confidence limits of the molar concentration of the test compound producing 50% inhibition of LPS-induced TNF-α release (IC50). […] The effects of the tested compounds are calculated as percentage of inhibition of TNF-α release, assuming LPS-induced TNF-α production in the absence of inhibitor compound as 100% and basal TNF-α production of PBMCs in the absence of LPS as 0%.

Experiment [2] has as its system LPDE4. The experiment is described as follows: Ability to inhibit low affinity LPDE4 (cAMP disappearance) versus competing for high affinity HPDE4 ([H3]rolipram binding). Type of experiment: biochemical. The source says:
Advantageously the compounds of the invention are characterized by a selectivity toward LPDE4 higher than that toward HPDE4 as obtained by the determination of their IC50. In the case of LPDE4, the IC50 is the molar concentration of the test compound producing 50% inhibition of cAMP disappearance, assessed as described in Cortijo J et al., Br. J. Pharmacol., 1993, 108: 562-568, while in the case of HPDE4, the IC50 is the molar concentration of the test compound producing 50% inhibition of the binding of [H^3] rolipram, assessed as described in Duplantier A J et al., J. Med. Chem., 1996; 39: 120-125. Preferably the HPDE4/LPDE IC50 ratio for the compounds of the invention is higher than 10, more preferably higher than 100, even more preferably higher than 300.
The affinity toward LPDE4 and HPDE4 is assessed as previously described respectively in Cortijo J et al., Br. J. Pharmacol., 1993, 108: 562-568 and Duplantier A J et al., J. Med. Chem., 1996; 39: 120-125. The activity of compounds 1, 2, 4, 5, 6, and 7 is evaluated.

Experiment [3] deals with LPDE4. Conditions: literature, Giembycz et al. 2001; cited from earlier work.
The next experiment deals with HPDE4. As to conditions: literature, Giembycz et al. 2001; cited from earlier work.

As to `COc1ccc(C(=Cc2c(Cl)cncc2Cl)OC(=O)c2ccccc2)c2c1oc1ccccc12` [Compound 2, Benzoic acid 2-(3,5-dichloro-pyridin-4-yl)-1-(4-methoxy-dibenzofuran-1-yl)-vinyl ester], in experiment [1], the half-maximal inhibitory concentration (IC50) (in general, the concentration that inhibits the measured activity by half) was 1 to 150 nM. The “inhibition of LPDE4 (affinity)” value in the experiment on LPDE4 [2] was “nanomolar affinity”.
On the same counts, the results for `COc1ccc(C(=Cc2c(Cl)cncc2Cl)OC(=O)c2ccccc2)c2c1oc1ccc(NS(C)(=O)=O)cc12` [Compound 5, Benzoic acid 2-(3,5-dichloro-pyridin-4-yl)-1-(8-methanesulfonylamino-4-methoxy-dibenzofuran-1-yl)-vinyl ester] are 1 to 150 nM and “nanomolar affinity”.
On the same counts, the results for `COc1ccc(C(=Cc2c(Cl)cncc2Cl)OC(=O)c2ccccc2)c2c1oc1ccc(N)cc12` [Compound 4, Benzoic acid 2-(3,5-dichloro-pyridin-4-yl)-1-(4-methoxy-8-amino-dibenzofuran-1-yl)-vinyl ester] are 1 to 150 nM and “nanomolar affinity”.
With `COc1ccc(C(=Cc2c(Cl)c[n+]([O-])cc2Cl)OC(=O)c2ccccc2)c2c1oc1ccc([N+](=O)[O-])cc12` [Compound 6, Benzoic acid 2-(3,5-dichloro-1-oxy-pyridin-4-yl)-1-(4-methoxy-8-nitro-dibenzofuran-1-yl)-vinyl ester], in the experiment with LPDE4 [2], the “inhibition of LPDE4 (affinity)” value is reported as “nanomolar affinity”.
As for `COc1ccc(C(=Cc2c(Cl)c[n+]([O-])cc2Cl)OC(=O)c2ccccc2)c2c1oc1ccccc12` [Compound 7, Benzoic acid 2-(3,5-dichloro-1-oxy-pyridin-4-yl)-1-(4-methoxy-dibenzofuran-1-yl)-vinyl ester], the IC50 in experiment [1] lay within 1 to 150 nM. The “inhibition of LPDE4 (affinity)” value in the experiment on LPDE4 [2] is “nanomolar affinity”.
`COc1ccc([C@]2(C#N)CC[C@@H](C(=O)O)CC2)cc1OC1CCCC1` [cilomilast]: in the experiment with LPDE4 [3], the HPDE4/LPDE4 ratio entry was “about 1.3” and the IC50 is 90 nM. In addition, the 50% inhibitory concentration (IC50) in the experiment on HPDE4 is 120 nM.
With `COc1ccc(C(=Cc2c(Cl)cncc2Cl)OC(=O)c2ccccc2)c2c1oc1ccc([N+](=O)[O-])cc12` [Compound 1, Benzoic acid 2-(3,5-dichloro-pyridin-4-yl)-1-(4-methoxy-8-nitro-dibenzofuran-1-yl)-vinyl ester], the concentration for half-maximal inhibition (IC50) in experiment [1] was 1 to 150 nM. Moreover, the “inhibition of LPDE4 (affinity)” value with LPDE4 [2] is recorded as “nanomolar affinity”.
